Experimental data as given in US20250129068A1 (IP2IPO INNOVATIONS LIMITED, priority 2021, published 2025).

These compounds were tested against full-length human GCN2 enzyme (Homo sapiens (Human), UniProt Q9P2K8) (assay: GCN2 enzyme inhibition, LanthaScreen TR-FRET Kinase Activity assay). Details: 10 μM ATP; mean of 1 to 3 replicate assays.
Sequence of full-length human GCN2 enzyme (Q9P2K8 whole entry): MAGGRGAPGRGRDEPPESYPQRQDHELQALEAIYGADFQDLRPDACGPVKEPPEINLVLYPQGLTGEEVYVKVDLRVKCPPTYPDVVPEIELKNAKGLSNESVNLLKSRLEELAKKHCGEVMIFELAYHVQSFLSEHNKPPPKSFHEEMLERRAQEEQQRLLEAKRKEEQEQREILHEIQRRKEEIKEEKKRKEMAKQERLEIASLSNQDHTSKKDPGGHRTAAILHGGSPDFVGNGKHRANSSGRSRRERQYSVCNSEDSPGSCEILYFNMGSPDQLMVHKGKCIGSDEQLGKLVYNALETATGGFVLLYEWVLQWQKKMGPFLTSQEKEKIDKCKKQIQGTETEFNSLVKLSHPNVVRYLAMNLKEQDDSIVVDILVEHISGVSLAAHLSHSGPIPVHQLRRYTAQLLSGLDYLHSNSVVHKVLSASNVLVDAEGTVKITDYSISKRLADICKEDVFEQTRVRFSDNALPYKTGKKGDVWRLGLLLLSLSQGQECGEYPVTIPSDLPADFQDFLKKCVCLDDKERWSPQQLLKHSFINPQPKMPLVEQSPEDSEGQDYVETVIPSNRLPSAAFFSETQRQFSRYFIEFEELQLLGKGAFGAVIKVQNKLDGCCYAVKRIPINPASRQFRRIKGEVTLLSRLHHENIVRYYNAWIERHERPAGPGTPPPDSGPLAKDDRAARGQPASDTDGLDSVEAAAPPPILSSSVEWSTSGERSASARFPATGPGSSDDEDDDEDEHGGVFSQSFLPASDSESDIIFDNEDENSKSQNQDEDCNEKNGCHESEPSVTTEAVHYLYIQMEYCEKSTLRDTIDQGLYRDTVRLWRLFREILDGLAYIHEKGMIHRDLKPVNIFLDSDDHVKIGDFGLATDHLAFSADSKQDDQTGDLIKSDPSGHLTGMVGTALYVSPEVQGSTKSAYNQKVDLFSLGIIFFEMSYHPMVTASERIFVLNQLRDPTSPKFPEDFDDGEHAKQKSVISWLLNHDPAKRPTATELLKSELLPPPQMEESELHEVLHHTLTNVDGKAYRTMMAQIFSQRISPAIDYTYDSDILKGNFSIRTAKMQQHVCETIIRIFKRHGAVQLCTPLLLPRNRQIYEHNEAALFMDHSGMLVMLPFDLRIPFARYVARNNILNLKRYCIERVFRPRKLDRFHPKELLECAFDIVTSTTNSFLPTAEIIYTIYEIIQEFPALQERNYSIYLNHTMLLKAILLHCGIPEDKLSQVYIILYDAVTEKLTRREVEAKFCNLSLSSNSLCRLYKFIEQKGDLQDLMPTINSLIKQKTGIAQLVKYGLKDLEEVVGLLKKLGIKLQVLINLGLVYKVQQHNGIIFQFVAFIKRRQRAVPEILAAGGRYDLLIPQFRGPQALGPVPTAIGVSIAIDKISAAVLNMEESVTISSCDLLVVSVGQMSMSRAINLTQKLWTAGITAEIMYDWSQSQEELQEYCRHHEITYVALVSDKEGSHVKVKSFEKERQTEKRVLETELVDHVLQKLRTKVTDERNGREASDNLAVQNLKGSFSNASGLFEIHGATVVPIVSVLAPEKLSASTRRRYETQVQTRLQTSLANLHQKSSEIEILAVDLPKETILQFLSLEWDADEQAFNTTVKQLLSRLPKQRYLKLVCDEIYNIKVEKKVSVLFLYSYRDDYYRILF
Format: biochemical
Description: The inhibitory activity of the Example compounds towards GCN2 enzyme was measured according to the description below, using a LanthaScreen TR-FRET (Time Resolved Fluorescence Resonance Energy Transfer) Kinase Activity assay distributed by ThermoFisher Scientific.
The full-length human GCN2 enzyme (UniProt accession number Q9P2K8) was used for all experiments (Carna Bioscience). The TR-FRET pair was composed of GFP-elF2a and LanthaScreen Terbium-labeled anti-pelF2a (pSer52) Antibody.
Each example compound was dissolved in DMSO (0.15 mM) and dispensed in a 384-well plate by a D300 dispenser (Tecan) to a final concentration range 3000-0.13 nM using the logarithmic dilution mode in 2 replicates. Full inhibition (3000 nM commercial reference inhibitor) and DMSO vehicle control wells were also included on the same plate. All volumes were normalized to the final DMSO concentration of 2% of the reaction volume. Next, 5 μL of H2O was added to each well of the plate.
The enzyme mixture was prepared to obtain the following concentrations: • GCN2—30 nM • unloaded tRNA—0.3 nM • HEPES (pH=7.0)—100 mM • MgCl2—20 mM; MnCl2—10 mM
The mixture was applied by adding 5 μL to each well of the plate. The enzyme and the tested compound were then incubated at room temperature for 20 min while shaking at 450 rpm.
The substrate mixture was prepared to obtain the following concentrations: • GFP-elF2α—240 nM • ATP-30 PM • HEPES (pH=7.0)—50 mM • MgCl2—10 mM • MnCl2—5 mM.
The mixture was applied by adding 5 μL to each well of the plate. Thus, the final concentrations of the 15 μL reaction mixture were as follows: • GCN2—10 nM • unloaded tRNA—0.1 nM • GFP-elF2α—80 nM • ATP-10 μM • HEPES (1 M, pH=7.0)—50 mM • MgCl2—10 mM • MnCl2—5 mM.
The reaction was allowed to proceed at room temperature for 30 min while shaking at 450 rpm.
The antibody mixture was prepared to obtain the following concentrations: • Na2EDTA·2H2O—40 mM, in TR-FRET Dilution Buffer (Life technologies) • Tb-anti-pelF2a antibodies—4 nM.
The mixture was applied by adding 15 μL to each well. The plate was then incubated at room temperature for 60 min while shaking at 450 rpm and then read using Tecan Spark reader using specific TR-FRET filters.
The analysis of the GFP/Tb fluorescence results was conducted with GraphPad Prism to determine IC50 for each of the example compounds using 4-parameter model: log (inhibitor) vs. response-variable slope. IC50 and Ki values were calculated in the usual way. The assay was carried out between 1 and 3 times. The results in the table below are the mean results from replicate assays for the compound in question, where applicable.
Compound COc1cccc(S(=O)(=O)Nc2nccc(C#Cc3cnc4[nH]ncc4c3)c2F)c1F [Example 1, 2-Fluoro-N-[3-fluoro-4-(2-{1H-pyrazolo[3,4-b]pyridin-5-yl}ethynyl)pyridin-2-yl]-3-methoxybenzene-1-sulfonamide] has a Ki of 172 nM. For N#Cc1cccc(S(=O)(=O)Nc2nccc(C#Cc3cnc4[nH]ncc4c3)c2F)c1 [Example 2, 3-Cyano-N-[3-fluoro-4-(2-{1H-pyrazolo[3,4-b]pyridin-5-yl}ethynyl)pyridin-2-yl]benzene-1-sulfonamide], the Ki was 107 nM. For COc1cccc(S(=O)(=O)Nc2nccc(C#Cc3cnc4[nH]ncc4c3)c2F)c1 [Example 3], the Ki was 128 nM. Cc1ncc(Cl)cc1S(=O)(=O)Nc1nccc(C#Cc2cnc3[nH]ncc3c2)c1F [Example 4, 5-Chloro-N-[3-fluoro-4-(2-{1H-pyrazolo[3,4-b]pyridin-5-yl}ethynyl)pyridin-2-yl]-2-methylpyridine-3-sulfonamide] showed a Ki of 2.49 nM. Compound COc1ncc(C(F)(F)F)cc1S(=O)(=O)Nc1nccc(C#Cc2cnc3[nH]ncc3c2)c1F [Example 5, N-[3-Fluoro-4-(2-{1H-pyrazolo[3,4-b]pyridin-5-yl}ethynyl)pyridin-2-yl]-2-methoxy-5-(trifluoromethyl)pyridine-3-sulfonamide] has a Ki of 5.78 nM. Cc1nc(C)c(S(=O)(=O)Nc2nccc(C#Cc3cnc4[nH]ncc4c3)c2F)s1 [Example 6, N-[3-Fluoro-4-(2-{1H-pyrazolo[3,4-b]pyridin-5-yl}ethynyl)pyridin-2-yl]-2,4-dimethyl-1,3-thiazole-5-sulfonamide] was tested, and the Ki was 29.3 nM. With O=S(=O)(Nc1nccc(C#Cc2cnc3[nH]ncc3c2)c1F)c1cncc(Cl)c1 [Example 7, 5-Chloro-N-[3-fluoro-4-(2-{1H-pyrazolo[3,4-b]pyridin-5-yl}ethynyl)pyridin-2-yl]pyridine-3-sulfonamide] the Ki was 127 nM. COc1ncccc1S(=O)(=O)Nc1nccc(C#Cc2cnc3[nH]ncc3c2)c1F [Example 8, N-[3-Fluoro-4-(2-{1H-pyrazolo[3,4-b]pyridin-5-yl}ethynyl)pyridin-2-yl]-2-methoxypyridine-3-sulfonamide] gave a Ki of 59.9 nM. With COc1ncc(C)cc1S(=O)(=O)Nc1nccc(C#Cc2cnc3[nH]ncc3c2)c1F [Example 9, N-[3-Fluoro-4-(2-{1H-pyrazolo[3,4-b]pyridin-5-yl}ethynyl)pyridin-2-yl]-2-methoxy-5-methyl-pyridine-3-sulfonamide] the Ki was 6.6 nM. O=S(=O)(Nc1nccc(C#Cc2cnc3[nH]ncc3c2)c1F)c1cccc2c1OCO2 [Example 10, N-[3-Fluoro-4-(2-{1H-pyrazolo[3,4-b]pyridin-5-yl}ethynyl)pyridin-2-yl]-2H-1,3-benzodioxole-4-sulfonamide] showed a Ki of 209 nM. With Cc1cnc(C)c(S(=O)(=O)Nc2nccc(C#Cc3cnc4[nH]ncc4c3)c2F)c1 [Example 11, N-[3-Fluoro-4-(2-{1H-pyrazolo[3,4-b]pyridin-5-yl}ethynyl)pyridin-2-yl]-2,5-dimethylpyridine-3-sulfonamide] the Ki was 8.17 nM. Work on COc1ncc(C#N)cc1S(=O)(=O)Nc1nccc(C#Cc2cnc3[nH]ncc3c2)c1F [Example 12, 5-Cyano-N-[3-fluoro-4-(2-{1H-pyrazolo[3,4-b]pyridin-5-yl}ethynyl)pyridin-2-yl]-2-methoxypyridine-3-sulfonamide] yielded a Ki of 7.76 nM. With Cc1ccc(S(=O)(=O)Nc2nccc(C#Cc3cnc4[nH]ncc4c3)c2F)c(C)n1 [Example 14, N-[3-Fluoro-4-(2-{1H-pyrazolo[3,4-b]pyridin-5-yl}ethynyl)pyridin-2-yl]-2,6-dimethylpyridine-3-sulfonamide] the Ki was 17.8 nM. Compound Cc1ncc(F)cc1S(=O)(=O)Nc1nccc(C#Cc2cnc3[nH]ncc3c2)c1F [Example 16, 5-Fluoro-N-[3-fluoro-4-(2-{1H-pyrazolo[3,4-b]pyridin-5-yl}ethynyl)pyridin-2-yl]-2-methylpyridine-3-sulfonamide] has a Ki of 4.19 nM. For CCOc1ncc(Cl)cc1S(=O)(=O)Nc1nccc(C#Cc2cnc3[nH]ncc3c2)c1F [Example 18, 5-Chloro-2-ethoxy-N-[3-fluoro-4-(2-{1H-pyrazolo[3,4-b]pyridin-5-yl}ethynyl)-pyridin-2-yl]pyridine-3-sulfonamide], the Ki was 8.83 nM. O=S(=O)(Nc1nccc(C#Cc2cnc3[nH]ncc3c2)c1F)c1ccc(Cl)cc1CO [Example 19] showed a Ki of 65 nM. With O=S(=O)(Nc1nccc(C#Cc2cnc3[nH]ncc3c2)c1F)c1cc(Cl)cnc1CCO [Example 20, 5-chloro-N-[3-fluoro-4-(2-{1H-pyrazolo[3,4-b]pyridin-5-yl}ethynyl)pyridin-2-yl]-2-(2-hydroxyethyl)pyridine-3-sulfonamide] the Ki was 67 nM.
